Source: the NIST ThermoML archive (doi:10.1021/je8008182)
Values joined by “and” are separate entries in the source; they are usually repeats but may differ in a detail not shown here. Equal entries are not always repeated. ± gives the expanded uncertainty stated by the source.

What was measured:
[1] = Liquid; for mass density: Pycnometric method; for viscosity: Capillary tube (Ostwald / Ubbelohde) method
[2] = wn = mass fraction of the nth substance listed; conditions: 101 kPa, Liquid, w1 = 0.2; for mass density: Pycnometric method; for viscosity: Capillary tube (Ostwald / Ubbelohde) method
[3] = xn = mol fraction of the nth substance listed; conditions: 101 kPa, Liquid, x2 = 0; for viscosity: Capillary tube (Ostwald / Ubbelohde) method; for mass density: Pycnometric method

Cc1ccncc1 [4-methylpyridine]
[1]
Conditions	mass density, 101 kPa	mass density, 101.33 kPa [kg/m3]	viscosity, 101 kPa [mPa·s]	viscosity, 101.33 kPa [mPa·s]
283.15 K	958.2 ± 0.4 kg/m3	958.2 ± 0.4	–	–
293.15 K	955.1 ± 0.4 kg/m3	955.1 ± 0.5	–	–
298.15 K	955.4 ± 0.5 kg/m3 and 951.1 ± 0.5 kg/m3	951.1 ± 0.7	–	0.8723 ± 0.0078
303.15 K	951.1 ± 1.1 kg/m3	–	0.8175 ± 0.0073	–
308.15 K	941.3 ± 1.1 kg/m3	–	0.7774 ± 0.0069	–
313.15 K	936.6 ± 0.8 kg/m3	–	0.7368 ± 0.0067	–
318.15 K	932.1 ± 0.7 kg/m3	–	0.6855 ± 0.0063	–
323.15 K	927.7 ± 0.8 kg/m3	–	0.6505 ± 0.0061	–
328.15 K	923.2 ± 0.8 kg/m3	–	0.5905 ± 0.0058	–
333.15 K	918.5 ± 0.8 kg/m3	–	0.5329 ± 0.0054	–
338.15 K	914 ± 0.8 kg/m3	–	0.4815 ± 0.005	–

O=S(=O)(O)O [sulfuric acid] + O
[2]
Conditions	mass density [kg/m3]	viscosity [mPa·s]
283.15 K	1145 ± 0.6	–
293.15 K	1139.6 ± 0.6	1.543 ± 0.014
298.15 K	1136.4 ± 0.6	–
303.15 K	1133.7 ± 0.6	1.21 ± 0.011
313.15 K	1127.8 ± 0.6	0.987 ± 0.0089
323.15 K	1121.9 ± 0.6	0.824 ± 0.0074
333.15 K	1115.7 ± 0.7	0.716 ± 0.0064
343.15 K	1108.9 ± 0.7	0.638 ± 0.0057

O [water]
[1], 101 kPa
Conditions	mass density [kg/m3]	viscosity [mPa·s]
298.15 K	–	0.8903 ± 0.0081
303.15 K	–	0.7973 ± 0.0074
308.15 K	–	0.719 ± 0.0067
313.15 K	–	0.6526 ± 0.0061
318.15 K	–	0.5972 ± 0.0056
323.15 K	988 ± 0.5	0.5468 ± 0.0052
328.15 K	985.7 ± 0.5	0.5042 ± 0.0048
333.15 K	983.2 ± 0.6	0.4669 ± 0.0045
338.15 K	980.6 ± 0.6	0.4341 ± 0.0042

O [water] + Cc1ccncc1
[3]
Conditions	mass density [kg/m3]	viscosity [mPa·s]
298.15 K	–	0.8903 ± 0.0081
303.15 K	–	0.7973 ± 0.0074
308.15 K	–	0.719 ± 0.0067
313.15 K	–	0.6526 ± 0.0061
318.15 K	–	0.5972 ± 0.0056
323.15 K	988 ± 0.5	0.5468 ± 0.0052
328.15 K	985.7 ± 0.5	0.5042 ± 0.0048
333.15 K	983.2 ± 0.6	0.4669 ± 0.0045
338.15 K	980.6 ± 0.6	0.4341 ± 0.0042
